Earlier results in patent US7799335B2, “Differential delivery of nitric oxide” (Boston Scientific Scimed, Inc., priority 2001, dated 2010).

Experiments:
endothelial cells = settings: low levels of nitric oxide (SNP 10-50 uM); Rossig et al. 2000
[1] = test system: human aortic vascular smooth muscle cells; settings: exogenously and endogenously produced nitric oxide, 10^−5 to 10^−3 molar; Tanner et al. 2000
platelet aggregation = settings: compared with SNAP
vasodilation = settings: compared with SNAP

SMILES | effect on TNF-alpha induced apoptosis (endothelial cells) | effect on smooth muscle cell proliferation [1] | inhibition of platelet aggregation (platelet aggregation) | effectiveness as vasodilator (vasodilation)
[N]=O [nitric oxide] | prevented TNF-alpha induced apoptosis in endothelial cells | prevented smooth muscle cell proliferation by inducing G1 phase arrest |  | 
N[C@@H](CCC(=O)N[C@@H](CSN=O)C(=O)NCC(=O)O)C(=O)O [GSN70, S-nitrosoglutathione] |  |  | the opposite is true | less effective vasodilator than SNAP
